Assay results: patent publication US6906205B2, “Spiro and dispiro 1,2,4-trioxolane antimalarials” (Medicines for Malaria Venture MMV, priority 2002, dated 2005)
In brackets after ≈: the same amount, converted by molar mass.

Test system: P. falciparum K1 strain (Thailand resistant to chloroquine)
Assay: semiautomated microdilution assay, [3H]-hypoxanthine incorporation, K1 strain
Format: cell-based, Plasmodium falciparum
Details: K1 strain, 72 h incubation
Method in brief: (§1)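 Asynchronous stock cultures → intraerythrocytic forms; semiautomated microdilution; IC50 by logit regression.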

Row | SMILES | IC50 (ng/ml) K1
1 | NCCOc1ccc([C@H]2CC[C@]3(CC2)OO[C@]2(O3)C3CC4CC(C3)CC2C4)cc1 [OZ323] | 0.85 ng/mL (≈ 2.13 nM)
2 | CC(C)(C)OC(=O)N1CCC2(CC1)OOC1(O2)C2CC3CC(C2)CC1C3 (stereo not shown) [OZ35] | 1.7 ng/mL (≈ 4.65 nM)
3 | C1CCN(C2CCC3(CC2)OOC2(O3)C3CC4CC(C3)CC2C4)CC1 (stereo not shown) [OZ159] | 0.70 ng/mL (≈ 2.01 nM)
4 | CC1(C)CC(C)(C)CC2(C1)OOC1(O2)C2CC3CC(C2)CC1C3 (stereo not shown) [OZ26] | 3.1 ng/mL (≈ 9.67 nM)
5 | c1ccc(CON=C2CCC3(CC2)OOC2(O3)C3CC4CC(C3)CC2C4)cc1 (stereo not shown) [OZ19] | 1.3 ng/mL (≈ 3.39 nM)
6 | CC(C)(C)ON=C1CCC2(CC1)OOC1(O2)C2CC3CC(C2)CC1C3 (stereo not shown) [OZ28] | 2.1 ng/mL (≈ 6.01 nM)

Test system: P. falciparum NF54 strain (sensitive to standard antimalarials)
Assay: semiautomated microdilution assay, [3H]-hypoxanthine incorporation, NF54 strain
Format: cell-based, Plasmodium falciparum
Details: NF54 strain, 72 h incubation
Method in brief: as §1

Row | SMILES | IC50 (ng/ml) NF54
7 | NCCOc1ccc([C@H]2CC[C@]3(CC2)OO[C@]2(O3)C3CC4CC(C3)CC2C4)cc1 [OZ323] | 1.1 ng/mL (≈ 2.75 nM)
8 | CC(C)(C)OC(=O)N1CCC2(CC1)OOC1(O2)C2CC3CC(C2)CC1C3 (stereo not shown) [OZ35] | 2.1 ng/mL (≈ 5.75 nM)
9 | C1CCN(C2CCC3(CC2)OOC2(O3)C3CC4CC(C3)CC2C4)CC1 (stereo not shown) [OZ159] | 0.94 ng/mL (≈ 2.71 nM)
10 | CC1(C)CC(C)(C)CC2(C1)OOC1(O2)C2CC3CC(C2)CC1C3 (stereo not shown) [OZ26] | 5.0 ng/mL (≈ 15.6 nM)
11 | c1ccc(CON=C2CCC3(CC2)OOC2(O3)C3CC4CC(C3)CC2C4)cc1 (stereo not shown) [OZ19] | 2.7 ng/mL (≈ 7.04 nM)
12 | CC(C)(C)ON=C1CCC2(CC1)OOC1(O2)C2CC3CC(C2)CC1C3 (stereo not shown) [OZ28] | 2.5 ng/mL (≈ 7.15 nM)

Test system: ANKA strain of P. berghei
Assay: single dose STI in vivo screen in infected mice
Design: species or system Plasmodium berghei
Details: percent reduction in parasitemia day 3 post-infection; single 10 mg/kg po in 3% ethanol and 7% Tween 80; mice
Method in brief: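 Groups of 3-5 Moro SPF or NMRI mice infected with the ANKA strain of P. berghei received a single dose of trioxolane on day one post-infection. The compound was given in 3% ethanol and 7% Tween 80 or in SSV (0.5% w/v CMC, 0.5% v/v benzyl alcohol, 0.4% v/v Tween 80, 0.9% w/v sodium chloride in water). Antimalarial activity was scored as percent reduction in parasitemia on day three and as survival time versus untreated controls. Survival to day 30 counted as cure.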

Row | SMILES | Activity (%) po
13 | c1ccc2c(c1)COC1(CCC3(CC1)OOC1(O3)C3CC4CC(C3)CC1C4)OC2 (stereo not shown) [OZ31] | 99.95%
14 | O=C1CC2CC3(CC2C1)OOC1(O3)C2CC3CC(C2)CC1C3 (stereo not shown) [OZ12] | 75%
15 | CC(C)(C)OC(=O)N1CCC2(CC1)OOC1(O2)C2CC3CC(C2)CC1C3 (stereo not shown) [OZ35] | 74%
16 | C1CCN(C2CCC3(CC2)OOC2(O3)C3CC4CC(C3)CC2C4)CC1 (stereo not shown) [OZ159] | 34%
17 | CC1(C)CC(C)(C)CC2(C1)OOC1(O2)C2CC3CC(C2)CC1C3 (stereo not shown) [OZ26] | 88%
18 | c1ccc(CON=C2CCC3(CC2)OOC2(O3)C3CC4CC(C3)CC2C4)cc1 (stereo not shown) [OZ19] | 98.3%
19 | CC(C)(C)ON=C1CCC2(CC1)OOC1(O2)C2CC3CC(C2)CC1C3 (stereo not shown) [OZ28] | 93%

Same assay, conditions: percent reduction in parasitemia day 3 post-infection; single 10 mg/kg sc in 3% ethanol and 7% Tween 80; mice

Row | SMILES | Activity (%) sc
20 | c1ccc2c(c1)COC1(CCC3(CC1)OOC1(O3)C3CC4CC(C3)CC1C4)OC2 (stereo not shown) [OZ31] | 99.95%
21 | O=C1CC2CC3(CC2C1)OOC1(O3)C2CC3CC(C2)CC1C3 (stereo not shown) [OZ12] | 99.8%
22 | CC(C)(C)OC(=O)N1CCC2(CC1)OOC1(O2)C2CC3CC(C2)CC1C3 (stereo not shown) [OZ35] | 99.98%
23 | C1CCN(C2CCC3(CC2)OOC2(O3)C3CC4CC(C3)CC2C4)CC1 (stereo not shown) [OZ159] | 98%
24 | CC1(C)CC(C)(C)CC2(C1)OOC1(O2)C2CC3CC(C2)CC1C3 (stereo not shown) [OZ26] | 99.9%
25 | c1ccc(CON=C2CCC3(CC2)OOC2(O3)C3CC4CC(C3)CC2C4)cc1 (stereo not shown) [OZ19] | 99.98%
26 | CC(C)(C)ON=C1CCC2(CC1)OOC1(O2)C2CC3CC(C2)CC1C3 (stereo not shown) [OZ28] | 99.97%

Same assay, conditions: percent reduction in parasitemia day 3 post-infection; single po dose in standard suspending vehicle (SSV); mice

Row | SMILES | Activity (%) SSVpo
27 | c1ccc2c(c1)COC1(CCC3(CC1)OOC1(O3)C3CC4CC(C3)CC1C4)OC2 (stereo not shown) [OZ31] | 90%
28 | C1CCN(C2CCC3(CC2)OOC2(O3)C3CC4CC(C3)CC2C4)CC1 (stereo not shown) [OZ159] | 31%
29 | c1ccc(CON=C2CCC3(CC2)OOC2(O3)C3CC4CC(C3)CC2C4)cc1 (stereo not shown) [OZ19] | 56%

Same assay, conditions: single 10 mg/kg po in 3% ethanol and 7% Tween 80; untreated control 5.6 ± 0.3

Row | SMILES | Survival (days) po
30 | c1ccc2c(c1)COC1(CCC3(CC1)OOC1(O3)C3CC4CC(C3)CC1C4)OC2 (stereo not shown) [OZ31] | 9.0 days
31 | O=C1CC2CC3(CC2C1)OOC1(O3)C2CC3CC(C2)CC1C3 (stereo not shown) [OZ12] | 7.0 days
32 | CC(C)(C)OC(=O)N1CCC2(CC1)OOC1(O2)C2CC3CC(C2)CC1C3 (stereo not shown) [OZ35] | 6.3 days
33 | C1CCN(C2CCC3(CC2)OOC2(O3)C3CC4CC(C3)CC2C4)CC1 (stereo not shown) [OZ159] | 6.7 days
34 | CC1(C)CC(C)(C)CC2(C1)OOC1(O2)C2CC3CC(C2)CC1C3 (stereo not shown) [OZ26] | 7.0 days
35 | c1ccc(CON=C2CCC3(CC2)OOC2(O3)C3CC4CC(C3)CC2C4)cc1 (stereo not shown) [OZ19] | 7.5 days
36 | CC(C)(C)ON=C1CCC2(CC1)OOC1(O2)C2CC3CC(C2)CC1C3 (stereo not shown) [OZ28] | 7.3 days

Same assay, conditions: single 10 mg/kg sc in 3% ethanol and 7% Tween 80; untreated control 5.6 ± 0.3

Row | SMILES | Survival (days) sc
37 | c1ccc2c(c1)COC1(CCC3(CC1)OOC1(O3)C3CC4CC(C3)CC1C4)OC2 (stereo not shown) [OZ31] | 17.7 days
38 | O=C1CC2CC3(CC2C1)OOC1(O3)C2CC3CC(C2)CC1C3 (stereo not shown) [OZ12] | 9.3 days
39 | CC(C)(C)OC(=O)N1CCC2(CC1)OOC1(O2)C2CC3CC(C2)CC1C3 (stereo not shown) [OZ35] | 9.3 days
40 | C1CCN(C2CCC3(CC2)OOC2(O3)C3CC4CC(C3)CC2C4)CC1 (stereo not shown) [OZ159] | 9.0 days
41 | CC1(C)CC(C)(C)CC2(C1)OOC1(O2)C2CC3CC(C2)CC1C3 (stereo not shown) [OZ26] | 9.7 days
42 | c1ccc(CON=C2CCC3(CC2)OOC2(O3)C3CC4CC(C3)CC2C4)cc1 (stereo not shown) [OZ19] | 13.4 days
43 | CC(C)(C)ON=C1CCC2(CC1)OOC1(O2)C2CC3CC(C2)CC1C3 (stereo not shown) [OZ28] | 12.3 days

Same assay, conditions: single po dose in SSV; untreated control 5.6 ± 0.3

Row | SMILES | Survival (days) SSVpo
44 | c1ccc2c(c1)COC1(CCC3(CC1)OOC1(O3)C3CC4CC(C3)CC1C4)OC2 (stereo not shown) [OZ31] | 7.3 days
45 | C1CCN(C2CCC3(CC2)OOC2(O3)C3CC4CC(C3)CC2C4)CC1 (stereo not shown) [OZ159] | 6.7 days
46 | c1ccc(CON=C2CCC3(CC2)OOC2(O3)C3CC4CC(C3)CC2C4)cc1 (stereo not shown) [OZ19] | 6.0 days

Test system: Schistosoma mansoni 21-day-old schistosomules
Assay: effect on 21-day-old schistosomules in mice
Format: in vivo
Details: single 200 mg/kg per os, female mice
Procedure: All groups were killed 4 weeks after treatment and the liver and intestine were removed and separated. The liver and intestine were compressed and alive male and female worms could be seen and counted. The effect of the compounds was evaluated by mean total and female worm burden.

Row | SMILES | % reduction of schistosomule growth at day 21 after per os application of 200 mg/kg, FWR (%) | % reduction of schistosomule growth at day 21 after per os application of 200 mg/kg, TWR (%)
47 | c1ccc2c(c1)COC1(CCC3(CC1)OOC1(O3)C3CC4CC(C3)CC1C4)OC2 (stereo not shown) [OZ31] | 63% | 60%
48 | O=C(C1CCCCC1)N1CC(=O)N2CCc3ccccc3C2C1 (stereo not shown) [PRAZIQUANTEL, praziquantel, reference compound] | 0% | 0%
49 | O=C1CC2CC3(CC2C1)OOC1(O3)C2CC3CC(C2)CC1C3 (stereo not shown) [OZ12] | 79% | 78%
50 | NCCOc1ccc([C@H]2CC[C@]3(CC2)OO[C@]2(O3)C3CC4CC(C3)CC2C4)cc1 [OZ323] | 97% | 95%
51 | CC(C)(C)OC(=O)N1CCC2(CC1)OOC1(O2)C2CC3CC(C2)CC1C3 (stereo not shown) [OZ35] | 63% | 73%
52 | C1CCN(C2CCC3(CC2)OOC2(O3)C3CC4CC(C3)CC2C4)CC1 (stereo not shown) [OZ159] | 19% | 19%
53 | CC1(C)CC(C)(C)CC2(C1)OOC1(O2)C2CC3CC(C2)CC1C3 (stereo not shown) [OZ26] | 40% | 37%
54 | c1ccc(CON=C2CCC3(CC2)OOC2(O3)C3CC4CC(C3)CC2C4)cc1 (stereo not shown) [OZ19] | 74% | 77%
55 | CC(C)(C)ON=C1CCC2(CC1)OOC1(O2)C2CC3CC(C2)CC1C3 (stereo not shown) [OZ28] | 87% | 81%

Test system: Schistosoma mansoni adult schistosomes (49-day-old)
Assay: effect on adult schistosomes (49-day-old) in mice
Format: in vivo
Details: single 400 mg/kg per os
Procedure: Mice were infected with 100 Schistosoma mansoni cercariae […]. Each group was treated per os with OZ compounds at single doses of 200, 400, and 600 mg/kg. […] All groups were killed 4 weeks after treatment and the liver and intestine were removed and separated. The liver and intestine were compressed and alive male and female worms could be seen and counted.

Row | SMILES | % reduction of adult worms growth at day 49 after per os application of 400 mg/kg, TWR (%) | adult worms at day 49, per os 400 mg/kg, DEAD WORM (%)
56 | c1ccc2c(c1)COC1(CCC3(CC1)OOC1(O3)C3CC4CC(C3)CC1C4)OC2 (stereo not shown) [OZ31] | 4/4% | 4/4%
57 | O=C(C1CCCCC1)N1CC(=O)N2CCc3ccccc3C2C1 (stereo not shown) [PRAZIQUANTEL, praziquantel, reference compound] | 96/96% | 96/96%
58 | O=C1CC2CC3(CC2C1)OOC1(O3)C2CC3CC(C2)CC1C3 (stereo not shown) [OZ12] | 14% | 0%
59 | NCCOc1ccc([C@H]2CC[C@]3(CC2)OO[C@]2(O3)C3CC4CC(C3)CC2C4)cc1 [OZ323] | 20% | 23%

Same assay, conditions: single 600 mg/kg per os

Row | SMILES | adult worms at day 49, per os 600 mg/kg, DEAD WORM (%)
60 | O=C(C1CCCCC1)N1CC(=O)N2CCc3ccccc3C2C1 (stereo not shown) [PRAZIQUANTEL, praziquantel, reference compound] | 100/100%
